{
  "source": "patent US9725490B2",
  "about": "“ERAP1-derived peptide and use thereof” (TOKUSHIMA UNIVERSITY, priority 2011, dated 2017)",
  "format_in_all_cases": "cell-based, human",
  "key": {"ERα phosphorylation": {"test_system": "ERα phosphorylation", "test": "E2-induced ERα phosphorylation, Western blotting, KPL-3C and BT-474", "details": "KPL-3C and BT-474 cells", "description": "FIG. 9-2 is a diagram illustrating that ERAP1-peptide treatment suppresses the non-genomic activation route. […] The cells (C and D) or BT474 cells (E) Were treated with the ERAP1-peptide. Then, the phosphorylation levels of Akt (C). MAPK (C) and ERα (D and E) were evaluated with Western blotting. The relative phosphorylation levels were quantified by densitometry analysis, and the ratio to the value at 0 hour for non-treated cells was calculated."}, "[1]": {"test_system": "protein expression in MCF-7 cells", "test": "2DICAL proteome analysis, MCF-7", "details": "10 μM, 10 nM E2 1 hour, versus E2 or E2 + scramble", "description": "MCF-7 cells were treated with 10 μM ERAP1-peptide (Peptide) and the ERAP1-scramble peptide (scrPeptide). Then, immediately, the cells were stimulated with 10 nM E2 for 1 hour. Subsequently, the obtained cell lysate solution was digested with trypsin and subjected to 2DICAL. […] MCF-7 cells were treated with 10 μM ERAP1-peptide. Then, immediately, the cells were stimulated with 10 nM E2 for 5, 10 and 15 hours. Then, RNA extraction and then Cy3-cRNA synthesis were performed, and the Cy3-cRNA was subjected to the microarray. The data were statistically analyzed by GeneSpring software, and the ratio to the value at 0 hour was calculated. **P<0.01.\nMCF-7 cells were treated with 10 μM ERAP1-peptide and ERAP1-scramble peptide. Then, immediately, the cells were stimulated with 10 nM E2. Then, the cells were fixed with methanol. The cells were dried under reduced pressure, and then treated with trypsin in the presence of 2% sodium deoxycholate and 5 M urea at 37° C. for 20 hours. The protein was extracted with ethyl acetate. […] The data were calculated as a ratio to the value at 0 hour."}, "[2]": {"test_system": "Akt, MAPK and ERα phosphorylation", "test": "Phosphorylation of Akt, MAPK and ERα in tamoxifen-resistant MCF-7 cells", "description": "FIG. 14 is a diagram illustrating the suppression effect of the ERAP1-peptide on tamoxifen-resistant MCF-7 cells. […] The tamoxifen-resistant MCF-7 cells were treated with the ERAP1-peptide in each concentration (0, 5 and 10 μM). Then, immediately, the cells were stimulated with 10 nM E2 for 24 hours.\nMCF-7 cells and tamoxifen-resistant MCF-7 cells were seeded in 1×10^5/well in DMEM/F12 culture medium containing phenol red on a 24-well plate and stood in a CO2 incubator for 24 hours. Then, the culture medium was exchanged with DMEM/F12 culture medium containing 10% FBS, 1% penicillin/streptomycin and 1 μM tamoxifen, and not containing phenol red, and the cells were further pre-cultured for 24 hours. The supernatant was removed, and then 180 μl of […] ERAP1-peptide was added (final concentration: 10 μM), and subsequently 20 μl of 100 nM E2 was added (final concentration: 10 nM), and the mixture was reacted for 24 hours. The reaction solution was removed, and then 100 μl of SDS-sample buffer was added and the cells were lysed. The cells were subjected to boiling treatment at 95° C. for 5 minutes, and subjected to polyacrylic amide electrophoresis. Phosphorylations of Akt and MAPK were detected with anti-phosphorylation Akt (Ser473) (587F11) and anti-phosphorylation p44/42 MAP Kinase (Thr202/Tyr204) antibodies, and phosphorylation of ERα was detected with anti-phosphorylation ERα (Ser104/106), anti-phosphorylation ERα (Ser118), anti-phosphorylation ERα (Ser167), anti-phosphorylation ERα (Ser305) and anti-phosphorylation ERα (Tyr537) antibodies."}},
  "data": [
    {"smiles": "CSCC[C@H](NC(=O)[C@H](CCC(N)=O)NC(=O)[C@H](CCCNC(=N)N)NC(=O)[C@H](CCCNC(=N)N)NC(=O)[C@H](CCCNC(=N)N)NC(=O)[C@H](CCCNC(=N)N)NC(=O)[C@H](CCCNC(=N)N)NC(=O)[C@H](CCCNC(=N)N)NC(=O)[C@H](CCCNC(=N)N)NC(=O)[C@H](CCCNC(=N)N)NC(=O)[C@H](CCCNC(=N)N)NC(=O)[C@H](CCCNC(=N)N)NC(=O)[C@@H](N)CCCNC(=N)N)C(=O)N[C@@H](CC(C)C)C(=O)N[C@@H](CO)C(=O)N[C@@H](CC(=O)O)C(=O)N[C@@H](CC(C)C)C(=O)N[C@H](C(=O)N[C@@H](CC(C)C)C(=O)N[C@@H](CCC(N)=O)C(=O)N[C@@H](CC(C)C)C(=O)N[C@@H](CCCNC(=N)N)C(=O)N[C@@H](CCC(N)=O)C(=O)N[C@@H](CCCNC(=N)N)C(=O)O)[C@@H](C)O", "note": "[ERAP1-peptide]", "values": [
      {"measurement": "E2-dependent phosphorylation of ERα sites", "setting": "ERα phosphorylation", "value": "E2-dependent phosphorylation in all of the sites was suppressed"},
      {"measurement": "change of protein expressions", "setting": "[1]", "value": "decreased significantly and genome-widely"},
      {"measurement": "phosphorylation of ERα", "setting": "[2]; Tam-R MCF-7, 10 μM peptide", "value": "all phosphorylation of ERα was also decreased"},
      {"measurement": "phosphorylations of Akt and MAPK", "setting": "[2]; Tam-R MCF-7, tamoxifen alone or tamoxifen and E2", "value": "phosphorylations of Akt and MAPK were remarkably decreased"}
    ]}
  ]
}
